Results: patent publication EP0324130A2, “8-Glycine, 16-X, Des-19-Leucine-Calcitonin” (RORER INTERNATIONAL (OVERSEAS) INC. (a Delaware corporation), priority 1987, dated 1989)
Peptide text beside a SMILES is read from it.

Test system: serum calcium concentration
Details: rat, in vivo, sc
Method: Biological Assay of Calcitonin Analogs in Vivo
The biological potency of 8-glycine, 16-alanine des-19-leucine salmon calcitonin was determined by comparing the reduction of serum calcium concentration which followed administration by graded doses of Gly^8, Ala^16, des-Ley^19-SCT and synthetic salmon calcitonin standard. Rats were divided into four groups of seven animals, and each group was assigned at random to a dose of standard or test solution. Low and high doses were chosen from the linear portion of the dose-response curve. For the salmon calcitonin standard, the values were 0.7 and 2.1 ng. peptide/100 g. […] This does approximates 3 and 9 MU/100 g. […] Peptides were given by subcutaneous injection (0.2 ml/100 g. BW) and blood was withdrawn 1 hour later for serum calcium determination. Sera are processed and analyzed within two hours of collection.

For CC(C)C[C@H](NC(=O)CNC(=O)[C@@H]1CSSC[C@H](N)C(=O)N[C@@H](CO)C(=O)N[C@@H](CC(N)=O)C(=O)N[C@@H](CC(C)C)C(=O)N[C@@H](CO)C(=O)N[C@@H]([C@@H](C)O)C(=O)N1)C(=O)NCC(=O)N[C@@H](CCCCN)C(=O)N[C@@H](CC(C)C)C(=O)N[C@@H](CO)C(=O)N[C@@H](CCC(N)=O)C(=O)N[C@@H](CCC(=O)O)C(=O)N[C@@H](C)C(=O)N[C@@H](Cc1c[nH]cn1)C(=O)N[C@@H](CCCCN)C(=O)N[C@@H](CCC(N)=O)C(=O)N[C@H](C(=O)N[C@@H](Cc1ccc(O)cc1)C(=O)N1CCC[C@H]1C(=O)N[C@@H](CCCNC(=N)N)C(=O)N[C@H](C(=O)N[C@@H](CC(N)=O)C(=O)N[C@H](C(=O)NCC(=O)N[C@@H](CO)C(=O)NCC(=O)N[C@H](C(=O)N1CCC[C@H]1C(N)=O)[C@@H](C)O)[C@@H](C)O)[C@@H](C)O)[C@@H](C)O [Gly^8, Ala^16, des-Leu'^9-SCT, [8-Glycine, 16-Alanine, des-19-Leucine] salmon calcitonin] (HELM PEPTIDE1{C.S.N.L.S.T.C.G.L.G.K.L.S.Q.E.A.H.K.Q.T.Y.P.R.T.N.T.G.S.G.T.P.[am]}$PEPTIDE1,PEPTIDE1,1:R3-7:R3$$$V2.0), the biological potency was 2,500 IU/mg.
